According to ChEMBL document CHEMBL4507297, “Data for DCP probe PF-04457845” (2021):

Columns and labels:
[1] = target: Mitogen-activated protein kinase kinase kinase kinase 5 (Homo sapiens) (UniProt Q9Y4K4); conditions: Compound concentration 1000.0 nM
[2] = target: Activin receptor type-1B (Homo sapiens) (UniProt P36896); conditions: Compound concentration 1000.0 nM
[3] = target: Phosphatidylinositol 5-phosphate 4-kinase type-2 beta (Homo sapiens) (UniProt P78356); conditions: Compound concentration 1000.0 nM
[4] = target: Ephrin type-B receptor 2 (Homo sapiens) (UniProt P29323); conditions: Compound concentration 1000.0 nM
Chain of Ephrin type-B receptor 2 (Homo sapiens) (P29323 whole entry): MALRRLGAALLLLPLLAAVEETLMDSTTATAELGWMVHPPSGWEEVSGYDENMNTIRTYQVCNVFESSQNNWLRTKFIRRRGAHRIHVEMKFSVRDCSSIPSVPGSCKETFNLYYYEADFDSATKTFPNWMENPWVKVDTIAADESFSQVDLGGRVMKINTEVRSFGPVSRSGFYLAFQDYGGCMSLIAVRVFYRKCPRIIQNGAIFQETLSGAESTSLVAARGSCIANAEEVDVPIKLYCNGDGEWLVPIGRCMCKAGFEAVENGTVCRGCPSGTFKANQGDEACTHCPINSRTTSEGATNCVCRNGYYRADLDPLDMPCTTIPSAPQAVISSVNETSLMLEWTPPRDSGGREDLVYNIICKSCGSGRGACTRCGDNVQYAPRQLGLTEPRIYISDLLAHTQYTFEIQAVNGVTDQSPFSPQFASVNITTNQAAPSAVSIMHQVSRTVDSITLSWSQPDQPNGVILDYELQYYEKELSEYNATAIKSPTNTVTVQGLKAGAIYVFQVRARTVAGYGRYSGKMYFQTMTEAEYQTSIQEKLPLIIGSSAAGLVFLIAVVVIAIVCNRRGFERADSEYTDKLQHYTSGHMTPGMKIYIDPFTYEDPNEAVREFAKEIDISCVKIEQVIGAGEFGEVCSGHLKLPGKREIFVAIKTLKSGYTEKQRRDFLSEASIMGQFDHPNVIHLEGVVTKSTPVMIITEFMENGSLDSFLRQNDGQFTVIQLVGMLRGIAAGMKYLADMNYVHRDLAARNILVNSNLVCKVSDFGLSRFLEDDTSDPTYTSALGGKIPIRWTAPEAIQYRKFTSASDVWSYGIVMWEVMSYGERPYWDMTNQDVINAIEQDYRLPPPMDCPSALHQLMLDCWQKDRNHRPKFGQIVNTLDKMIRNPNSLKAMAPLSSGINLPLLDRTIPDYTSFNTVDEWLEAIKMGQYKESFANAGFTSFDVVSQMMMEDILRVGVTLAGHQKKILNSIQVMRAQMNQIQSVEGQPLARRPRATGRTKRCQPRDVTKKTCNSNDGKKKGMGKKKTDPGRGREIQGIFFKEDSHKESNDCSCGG

[5] = target: D(3) dopamine receptor (Homo sapiens) (UniProt P35462); conditions: Compound concentration 10.0 uM
[6] = target: NUAK family SNF1-like kinase 2 (Homo sapiens) (UniProt Q9H093); conditions: Compound concentration 1000.0 nM
[7] = target: Tyrosine-protein kinase TXK (Homo sapiens) (UniProt P42681); conditions: Compound concentration 1000.0 nM
[8] = target: Serine/threonine-protein kinase PAK 1 (Homo sapiens) (UniProt Q13153); conditions: Compound concentration 1000.0 nM
Chain of Serine/threonine-protein kinase PAK 1 (Homo sapiens) (Q13153 whole entry): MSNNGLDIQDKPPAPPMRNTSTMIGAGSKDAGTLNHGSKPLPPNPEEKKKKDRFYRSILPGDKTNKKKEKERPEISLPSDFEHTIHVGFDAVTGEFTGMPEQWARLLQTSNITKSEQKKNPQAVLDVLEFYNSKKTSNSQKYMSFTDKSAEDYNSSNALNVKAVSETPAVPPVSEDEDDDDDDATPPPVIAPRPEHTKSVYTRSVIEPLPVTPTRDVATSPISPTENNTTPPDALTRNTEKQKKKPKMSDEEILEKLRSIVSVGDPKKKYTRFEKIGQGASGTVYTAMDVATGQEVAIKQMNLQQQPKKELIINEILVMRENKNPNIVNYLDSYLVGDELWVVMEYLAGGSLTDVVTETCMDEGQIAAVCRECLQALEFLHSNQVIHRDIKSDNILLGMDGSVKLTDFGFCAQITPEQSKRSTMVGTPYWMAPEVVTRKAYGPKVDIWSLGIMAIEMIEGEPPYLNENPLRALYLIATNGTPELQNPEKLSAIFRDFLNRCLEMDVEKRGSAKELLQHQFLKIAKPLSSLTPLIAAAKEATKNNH

[9] = target: Phosphatidylinositol 4-phosphate 5-kinase type-1 alpha (Homo sapiens) (UniProt Q99755); conditions: Compound concentration 1000.0 nM
[10] = target: Mitogen-activated protein kinase kinase kinase 11 (Homo sapiens) (UniProt Q16584); conditions: Compound concentration 1000.0 nM
[11] = target: Phosphatidylinositol 4,5-bisphosphate 3-kinase catalytic subunit beta isoform (Homo sapiens) (UniProt P42338); conditions: Compound concentration 1000.0 nM
[12] = target: 5-hydroxytryptamine receptor 1E (Homo sapiens) (UniProt P28566); conditions: Compound concentration 10.0 uM
Chain of 5-hydroxytryptamine receptor 1E (Homo sapiens) (P28566 whole entry): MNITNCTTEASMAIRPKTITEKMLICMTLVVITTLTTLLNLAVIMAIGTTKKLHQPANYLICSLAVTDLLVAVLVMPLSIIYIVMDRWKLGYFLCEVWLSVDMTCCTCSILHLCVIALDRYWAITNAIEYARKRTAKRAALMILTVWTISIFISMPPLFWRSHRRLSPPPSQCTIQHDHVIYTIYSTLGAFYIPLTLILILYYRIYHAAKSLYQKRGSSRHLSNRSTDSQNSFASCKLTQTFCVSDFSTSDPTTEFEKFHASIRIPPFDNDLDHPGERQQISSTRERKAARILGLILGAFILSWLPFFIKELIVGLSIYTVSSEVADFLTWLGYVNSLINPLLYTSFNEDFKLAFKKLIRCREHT

[13] = target: Serine/threonine-protein kinase STK11 (Homo sapiens) (UniProt Q15831); conditions: Compound concentration 1000.0 nM
[14] = target: Cyclin-dependent kinase-like 2 (Homo sapiens) (UniProt Q92772); conditions: Compound concentration 1000.0 nM
[15] = target: Serine/threonine-protein kinase 32C (Homo sapiens) (UniProt Q86UX6); conditions: Compound concentration 1000.0 nM
[16] = target: NT-3 growth factor receptor (Homo sapiens) (UniProt Q16288); conditions: Compound concentration 1000.0 nM
[17] = target: Serine/threonine-protein kinase 35 (Homo sapiens) (UniProt Q8TDR2); conditions: Compound concentration 1000.0 nM
Chain of Serine/threonine-protein kinase 35 (Homo sapiens) (Q8TDR2 whole entry): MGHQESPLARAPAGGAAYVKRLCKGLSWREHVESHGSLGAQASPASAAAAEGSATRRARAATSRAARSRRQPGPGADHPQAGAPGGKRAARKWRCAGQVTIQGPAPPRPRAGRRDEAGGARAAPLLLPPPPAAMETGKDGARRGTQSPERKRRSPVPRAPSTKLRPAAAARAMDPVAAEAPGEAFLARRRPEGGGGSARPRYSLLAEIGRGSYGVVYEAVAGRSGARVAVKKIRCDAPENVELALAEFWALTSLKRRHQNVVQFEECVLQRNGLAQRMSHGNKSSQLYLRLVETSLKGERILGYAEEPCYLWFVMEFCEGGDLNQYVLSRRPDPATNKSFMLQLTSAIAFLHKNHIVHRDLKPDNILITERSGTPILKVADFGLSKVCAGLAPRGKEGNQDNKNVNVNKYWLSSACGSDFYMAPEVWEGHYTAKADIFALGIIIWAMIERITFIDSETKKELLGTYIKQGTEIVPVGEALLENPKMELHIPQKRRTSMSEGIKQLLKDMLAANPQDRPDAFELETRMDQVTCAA

[18] = target: Vascular endothelial growth factor receptor 2 (Homo sapiens) (UniProt P35968); conditions: Compound concentration 1000.0 nM
[19] = target: D(4) dopamine receptor (Homo sapiens) (UniProt P21917); conditions: Compound concentration 10.0 uM
Chain of D(4) dopamine receptor (Homo sapiens) (P21917 whole entry): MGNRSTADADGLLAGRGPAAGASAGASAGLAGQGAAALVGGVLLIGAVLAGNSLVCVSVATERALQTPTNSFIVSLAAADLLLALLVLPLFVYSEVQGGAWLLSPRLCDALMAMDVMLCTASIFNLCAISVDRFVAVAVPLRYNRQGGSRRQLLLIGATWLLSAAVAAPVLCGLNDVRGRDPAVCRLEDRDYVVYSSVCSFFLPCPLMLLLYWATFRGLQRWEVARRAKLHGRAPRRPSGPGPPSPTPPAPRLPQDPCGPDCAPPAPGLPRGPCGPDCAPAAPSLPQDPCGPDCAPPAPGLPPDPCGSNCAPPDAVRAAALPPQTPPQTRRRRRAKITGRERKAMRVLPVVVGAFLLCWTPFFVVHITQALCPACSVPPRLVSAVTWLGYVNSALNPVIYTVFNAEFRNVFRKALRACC

[20] = target: Serine/threonine-protein kinase pim-3 (Homo sapiens) (UniProt Q86V86); conditions: Compound concentration 1000.0 nM
[21] = target: Serine/threonine-protein kinase TAO1 (Homo sapiens) (UniProt Q7L7X3); conditions: Compound concentration 1000.0 nM
Chain of Serine/threonine-protein kinase TAO1 (Homo sapiens) (Q7L7X3 whole entry): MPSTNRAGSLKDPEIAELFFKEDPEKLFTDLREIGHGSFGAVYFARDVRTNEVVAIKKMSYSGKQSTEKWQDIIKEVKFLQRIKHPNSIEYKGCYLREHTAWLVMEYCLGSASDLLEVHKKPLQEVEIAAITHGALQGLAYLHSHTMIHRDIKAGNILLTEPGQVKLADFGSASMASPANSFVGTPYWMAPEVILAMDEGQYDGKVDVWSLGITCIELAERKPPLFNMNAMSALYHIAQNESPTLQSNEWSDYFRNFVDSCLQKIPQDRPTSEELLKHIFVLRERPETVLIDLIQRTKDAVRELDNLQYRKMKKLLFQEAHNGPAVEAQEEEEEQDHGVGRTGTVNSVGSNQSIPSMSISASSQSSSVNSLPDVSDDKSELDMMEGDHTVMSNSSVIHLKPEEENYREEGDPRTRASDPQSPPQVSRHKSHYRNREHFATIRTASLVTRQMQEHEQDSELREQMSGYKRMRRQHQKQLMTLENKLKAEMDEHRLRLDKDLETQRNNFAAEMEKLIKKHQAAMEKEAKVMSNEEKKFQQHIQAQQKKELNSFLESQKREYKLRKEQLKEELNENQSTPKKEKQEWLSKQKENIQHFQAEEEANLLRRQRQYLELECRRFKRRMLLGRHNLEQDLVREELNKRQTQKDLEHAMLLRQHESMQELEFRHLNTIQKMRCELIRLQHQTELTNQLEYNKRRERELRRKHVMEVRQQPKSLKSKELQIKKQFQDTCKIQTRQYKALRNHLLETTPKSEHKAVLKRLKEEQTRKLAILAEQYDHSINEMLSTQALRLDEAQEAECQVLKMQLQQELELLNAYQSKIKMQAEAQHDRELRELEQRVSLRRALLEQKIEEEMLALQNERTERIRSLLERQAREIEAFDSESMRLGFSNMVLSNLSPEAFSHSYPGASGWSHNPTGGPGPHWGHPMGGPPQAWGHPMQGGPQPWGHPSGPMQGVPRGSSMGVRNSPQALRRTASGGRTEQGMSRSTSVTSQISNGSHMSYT

[22] = target: Tyrosine-protein kinase SYK (Homo sapiens) (UniProt P43405); conditions: Compound concentration 1000.0 nM
[23] = target: Dual specificity mitogen-activated protein kinase kinase 1 (Homo sapiens) (UniProt Q02750); conditions: Compound concentration 1000.0 nM
[24] = target: Serine/threonine-protein kinase SIK1 (Homo sapiens) (UniProt P57059); conditions: Compound concentration 1000.0 nM
[25] = system: Epidermal growth factor receptor (Homo sapiens), P00533 [G719C]; conditions: Compound concentration 1000.0 nM
[26] = system: Tyrosine-protein kinase ABL1 (Homo sapiens), P00519 [T315I]; conditions: Compound concentration 1000.0 nM
[27] = target: Myotonin-protein kinase (Homo sapiens) (UniProt Q09013); conditions: Compound concentration 1000.0 nM
[28] = target: Dual specificity tyrosine-phosphorylation-regulated kinase 2 (Homo sapiens) (UniProt Q92630); conditions: Compound concentration 1000.0 nM
[29] = target: Mitogen-activated protein kinase kinase kinase 20 (Homo sapiens) (UniProt Q9NYL2); conditions: Compound concentration 1000.0 nM
[30] = target: Protein-tyrosine kinase 2-beta (Homo sapiens) (UniProt Q14289); conditions: Compound concentration 1000.0 nM
[31] = target: Serine/threonine-protein kinase SBK1 (Homo sapiens) (UniProt Q52WX2); conditions: Compound concentration 1000.0 nM
[32] = system: Hepatocyte growth factor receptor (Homo sapiens), P08581 [M1250T]; conditions: Compound concentration 1000.0 nM
[33] = target: Mu-type opioid receptor (Homo sapiens) (UniProt P35372); conditions: Compound concentration 10.0 uM
[34] = target: Calcium/calmodulin-dependent protein kinase type 1D (Homo sapiens) (UniProt Q8IU85); conditions: Compound concentration 1000.0 nM
[35] = target: Serine/threonine-protein kinase MAK (Homo sapiens) (UniProt P20794); conditions: Compound concentration 1000.0 nM
[36] = target: Serine/threonine-protein kinase MRCK gamma (Homo sapiens) (UniProt Q6DT37); conditions: Compound concentration 1000.0 nM
[37] = target: Tyrosine-protein kinase JAK1 (Homo sapiens) (UniProt P23458); conditions: Compound concentration 1000.0 nM
[38] = target: ALK tyrosine kinase receptor (Homo sapiens) (UniProt Q9UM73); conditions: Compound concentration 1000.0 nM
[39] = system: Phosphatidylinositol 4,5-bisphosphate 3-kinase catalytic subunit alpha isoform (Homo sapiens), P42336 [H1047L]; conditions: Compound concentration 1000.0 nM
[40] = target: Bone morphogenetic protein receptor type-2 (Homo sapiens) (UniProt Q13873); conditions: Compound concentration 1000.0 nM
[41] = target: SRSF protein kinase 2 (Homo sapiens) (UniProt P78362); conditions: Compound concentration 1000.0 nM
[42] = target: Receptor-interacting serine/threonine-protein kinase 4 (Homo sapiens) (UniProt P57078); conditions: Compound concentration 1000.0 nM
[43] = system: Epidermal growth factor receptor (Homo sapiens), P00533 [UNDEFINED MUTATION]; conditions: Compound concentration 1000.0 nM
[44] = target: Calcium/calmodulin-dependent protein kinase kinase 2 (Homo sapiens) (UniProt Q96RR4); conditions: Compound concentration 1000.0 nM
[45] = target: Mitogen-activated protein kinase kinase kinase 12 (Homo sapiens) (UniProt Q12852); conditions: Compound concentration 1000.0 nM

Chain of Mitogen-activated protein kinase kinase kinase kinase 5 (Homo sapiens) (Q9Y4K4 whole entry, looked up): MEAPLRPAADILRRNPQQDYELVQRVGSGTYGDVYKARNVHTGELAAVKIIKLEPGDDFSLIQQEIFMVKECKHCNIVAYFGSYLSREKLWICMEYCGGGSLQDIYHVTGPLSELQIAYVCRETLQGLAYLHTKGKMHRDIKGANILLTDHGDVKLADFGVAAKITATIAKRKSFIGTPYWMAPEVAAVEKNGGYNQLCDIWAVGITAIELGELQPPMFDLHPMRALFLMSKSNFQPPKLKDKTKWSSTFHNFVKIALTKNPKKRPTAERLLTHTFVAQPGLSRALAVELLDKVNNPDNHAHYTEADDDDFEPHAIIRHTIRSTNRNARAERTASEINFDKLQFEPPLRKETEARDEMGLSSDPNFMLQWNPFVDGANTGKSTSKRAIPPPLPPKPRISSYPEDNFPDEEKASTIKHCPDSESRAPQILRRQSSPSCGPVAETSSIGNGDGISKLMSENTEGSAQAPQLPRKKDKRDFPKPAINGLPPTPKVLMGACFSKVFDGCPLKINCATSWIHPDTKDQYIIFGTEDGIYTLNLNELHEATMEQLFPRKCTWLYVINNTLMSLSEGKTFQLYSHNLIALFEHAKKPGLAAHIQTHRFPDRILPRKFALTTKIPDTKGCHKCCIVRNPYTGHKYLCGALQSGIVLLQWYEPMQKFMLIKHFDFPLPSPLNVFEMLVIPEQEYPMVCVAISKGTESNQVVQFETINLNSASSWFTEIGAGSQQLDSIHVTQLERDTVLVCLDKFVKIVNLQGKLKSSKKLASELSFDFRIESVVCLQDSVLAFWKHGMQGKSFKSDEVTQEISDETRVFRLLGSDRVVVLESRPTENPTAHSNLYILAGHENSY

O=C(Nc1cccnn1)N1CCC(=Cc2cccc(Oc3ccc(C(F)(F)F)cn3)c2)CC1
inactive: residual activity [1] 100% | residual activity [2] 88% | residual activity [3] 83% | residual activity [4] 100% | inhibition [5] 4.08% | residual activity [6] 88% | residual activity [7] 100% | residual activity [8] 72% | residual activity [9] 100% | residual activity [10] 74% | residual activity [11] 100% | inhibition [12] 19% | residual activity [13] 100% | residual activity [14] 92% | residual activity [15] 100% | residual activity [16] 100% | residual activity [17] 100% | residual activity [18] 88% | inhibition [19] -6.93% | residual activity [20] 79% | residual activity [21] 100% | residual activity [22] 100% | residual activity [23] 100% | residual activity [24] 100% | residual activity [25] 100% | residual activity [26] 100% | residual activity [27] 100% | residual activity [28] 81% | residual activity [29] 95% | residual activity [30] 97% | residual activity [31] 100% | residual activity [32] 100% | inhibition [33] 17.5% | residual activity [34] 97% | residual activity [35] 100% | residual activity [36] 84% | residual activity [37] 97% | residual activity [38] 100% | residual activity [39] 100% | residual activity [40] 100% | residual activity [41] 100% | residual activity [42] 100% | residual activity [43] 73% | residual activity [44] 73% | residual activity [45] 100%

O=C(Nc1cccnn1)N1CC(C/C=C/c2cncc(Oc3ccc(C(F)(F)F)cn3)n2)C1
inactive: residual activity [1] 94% | residual activity [2] 79% | residual activity [3] 96% | residual activity [4] 100% | inhibition [5] -9.59% | residual activity [6] 73% | residual activity [7] 100% | residual activity [8] 90% | residual activity [9] 100% | residual activity [10] 100% | residual activity [11] 79% | inhibition [12] 0.84% | residual activity [13] 64% | residual activity [14] 100% | residual activity [15] 100% | residual activity [16] 85% | residual activity [17] 94% | residual activity [18] 64% | inhibition [19] 12.3% | residual activity [20] 100% | residual activity [21] 91% | residual activity [22] 100% | residual activity [23] 93% | residual activity [24] 100% | residual activity [25] 100% | residual activity [26] 60% | residual activity [27] 100% | residual activity [28] 81% | residual activity [29] 100% | residual activity [30] 100% | residual activity [31] 89% | residual activity [32] 100% | inhibition [33] 1.18% | residual activity [34] 100% | residual activity [35] 100% | residual activity [36] 100% | residual activity [37] 100% | residual activity [38] 97% | residual activity [39] 100% | residual activity [40] 76% | residual activity [41] 100% | residual activity [42] 74% | residual activity [43] 85% | residual activity [44] 100% | residual activity [45] 83%
